Patent US9980943B2, “Methods of treating muscular dystrophy” (BOARD OF REGENTS OF THE NEVADA SYSTEM OF HIGHER EDUCATION, …, priority 2013, dated 2018)

How the values were obtained:
Format in all cases: cell-based, mouse
[1] = tested on: α7 integrin (LacZ reporter in α7βgal+/− myoblasts); experiment: Myoblast α7+/LacZ integrin FDG assay (Burkin assay in myoblasts, 96-well); conditions: α7+/LacZ myoblasts, 96-well
[2] = tested on: β-galactosidase in CMV-LacZ C2C12 myotubes; experiment: CMV-LacZ secondary screen in C2C12 myotubes (β-Gal stabilizing assay); conditions: for CMV-LACZ in Myotubes (β-galactosidase activity relative to DMSO): CMV-LacZ C2C12 myotubes, 96-well format
How it was run: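 First, C2C12 myoblasts were transfected with a linearized CMV-LACZ vector and clonal lines selected by FDG β-gal assay. Then cells were exposed to compounds at 0.5, 1, 5, 10, 20 and 40 μM in 96-well format, two replicates each, and β-gal measured.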

[3] = tested on: α7 integrin (LacZ reporter in α7+/LacZ myotubes); experiment: Myotube α7 integrin FDG assay (Burkin assay in myotubes, 96-well); conditions: myotubes

SMILES	Burkin Assay in Myoblasts, value relative to DMSO ([1]; 0.5 uM)	Burkin Assay in Myoblasts, value relative to DMSO ([1]; 1 uM)	Burkin Assay in Myoblasts, value relative to DMSO ([1]; 5 uM)	Burkin Assay in Myoblasts, value relative to DMSO ([1]; 10 uM)	Burkin Assay in Myoblasts, value relative to DMSO ([1]; 20 uM)	Burkin Assay in Myoblasts, value relative to DMSO ([1]; 40 uM)	Burkin Assay in Myotubes (signal relative to DMSO) ([3]; 0.5 uM)	Burkin Assay in Myotubes (signal relative to DMSO) ([3]; 1 uM)	Burkin Assay in Myotubes (signal relative to DMSO) ([3]; 5 uM)	Burkin Assay in Myotubes (signal relative to DMSO) ([3]; 10 uM)	Burkin Assay in Myotubes (signal relative to DMSO) ([3]; 20 uM)	Burkin Assay in Myotubes (signal relative to DMSO) ([3]; 40 uM)	CMV-LACZ in Myotubes (β-galactosidase activity relative to DMSO) ([2]; 5 uM)	CMV-LACZ in Myotubes (β-galactosidase activity relative to DMSO) ([2]; 10 uM)	CMV-LACZ in Myotubes (β-galactosidase activity relative to DMSO) ([2]; 20 uM)	CMV-LACZ in Myotubes (β-galactosidase activity relative to DMSO) ([2]; 40 uM)	other results
CCc1ccc(Sc2cc(C(=O)NCCN3CCOCC3)c3ccccc3n2)cc1 [MLS000584511-01]	0.5425	0.8885	1.033	1.087	1.05	1.072	1.0682	1.051	1.2189	1.163	1.004	1.041	–	–	–	–	CMV-LACZ in Myotubes, signal relative to DMSO ([2]; 5 uM, C2C12 CMV-LacZ myotubes, fold relative to DMSO): 0.8355; CMV-LACZ in Myotubes, signal relative to DMSO ([2]; 10 uM, C2C12 CMV-LacZ myotubes, fold relative to DMSO): 0.8735; CMV-LACZ in Myotubes, signal relative to DMSO ([2]; 20 uM, C2C12 CMV-LacZ myotubes, fold relative to DMSO): 0.871; CMV-LACZ in Myotubes, signal relative to DMSO ([2]; 40 uM, C2C12 CMV-LacZ myotubes, fold relative to DMSO): 0.7478
O=C(O)CCn1cc(/C=C2/NC(=S)N(c3ccccc3)C2=O)c(-c2ccccc2)n1 [MLS000585616-01]	–	–	–	–	–	–	–	–	–	–	–	–	–	–	–	–	fold induction at 0.5 µM ([1]; Mus musculus, Myoblast, 48 h, 0.5 uM, read-out: Burkin Assay in Myoblasts, value relative to DMSO): 0.681; fold induction at 1 µM ([1]; Mus musculus, Myoblast, 48 h, 1 uM, read-out: Burkin Assay in Myoblasts, value relative to DMSO): 0.943; fold induction at 5 µM ([1]; Mus musculus, Myoblast, 48 h, 5 uM, read-out: Burkin Assay in Myoblasts, value relative to DMSO): 1.01; fold induction at 10 µM ([1]; Mus musculus, Myoblast, 48 h, 10 uM, read-out: Burkin Assay in Myoblasts, value relative to DMSO): 0.977; fold induction at 20 µM ([1]; Mus musculus, Myoblast, 48 h, 20 uM, read-out: Burkin Assay in Myoblasts, value relative to DMSO): 0.935; fold induction at 40 µM ([1]; Mus musculus, Myoblast, 48 h, 40 uM, read-out: Burkin Assay in Myoblasts, value relative to DMSO): 0.932; fold induction at 5 µM ([2]; Mus musculus, C2C12, read-out: CMV-LACZ in Myotubes, signal relative to DMSO, 5 uM, C2C12 CMV-LacZ myotubes, fold relative to DMSO): 0.903; fold induction at 10 µM ([2]; Mus musculus, C2C12, read-out: CMV-LACZ in Myotubes, signal relative to DMSO, 10 uM, C2C12 CMV-LacZ myotubes, fold relative to DMSO): 0.791; fold induction at 20 µM ([2]; Mus musculus, C2C12, read-out: CMV-LACZ in Myotubes, signal relative to DMSO, 20 uM, C2C12 CMV-LacZ myotubes, fold relative to DMSO): 0.91; fold induction at 40 µM ([2]; Mus musculus, C2C12, read-out: CMV-LACZ in Myotubes, signal relative to DMSO, 40 uM, C2C12 CMV-LacZ myotubes, fold relative to DMSO): 0.879; fold induction at 0.5 µM ([3]; Mus musculus, Myotube, 0.5 uM, read-out: Burkin Assay in Myotubes (signal relative to DMSO)): 0.999; fold induction at 1 µM ([3]; Mus musculus, Myotube, 1 uM, read-out: Burkin Assay in Myotubes (signal relative to DMSO)): 0.958; fold induction at 5 µM ([3]; Mus musculus, Myotube, 5 uM, read-out: Burkin Assay in Myotubes (signal relative to DMSO)): 1.58; fold induction at 10 µM ([3]; Mus musculus, Myotube, 10 uM, read-out: Burkin Assay in Myotubes (signal relative to DMSO)): 1.15; fold induction at 20 µM ([3]; Mus musculus, Myotube, 20 uM, read-out: Burkin Assay in Myotubes (signal relative to DMSO)): 1.03; fold induction at 40 µM ([3]; Mus musculus, Myotube, 40 uM, read-out: Burkin Assay in Myotubes (signal relative to DMSO)): 0.962
Cc1ccc(C2Nc3cccc4cccc(c34)N2)s1 [MLS000591198-01]	1.006	0.9251	1.037	0.9593	0.7765	0.473	1.017	0.881	1	0.8548	0.9852	0.7014	0.9681	0.9319	0.8338	0.4531	–
N/C(=N\OC(=O)COc1cc(Cl)c(Cl)cc1Cl)c1ccncc1 [MLS000625140-01]	0.8839	0.8709	0.8748	0.7833	0.7589	0.6829	0.8484	0.8454	1.114	0.9131	0.6793	0.6514	0.9172	1.036	1.107	1.016	–
